Reference: ChEMBL document CHEMBL1201862, “PubChem BioAssay data set” (2004)
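Step 1: Grow cells in 96-well plates. Step 2: Expose to compound for 48 hours at 5 concentrations. Step 3: Interpolate endpoints linearly; if unreached, use highest concentration. GI50 marks 50% less growth.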 The source made the active and inactive calls. Cut-off read from the data, not from the text of the source: active = GI50 up to about 1.1 µM and inactive = higher.

Legend:
Experiment in all cases: NCI tumour cell line growth inhibition, 48 h
[1] = system: UACC-257
[2] = system: CAKI-1
[3] = system: EKVX
[4] = system: SK-MEL-5
[5] = system: TK-10
[6] = system: BT-549
[7] = system: SR
[8] = system: SF-295
[9] = system: HL-60
[10] = system: U-251
[11] = system: MDA-MB-435
[12] = system: MDA-MB-231
[13] = system: M14
[14] = system: MOLT-4
[15] = system: A549
[16] = system: UACC-62
[17] = system: NCI-H226
[18] = system: HOP-92
[19] = system: A498

## O=c1[nH]nc(NCCc2ccccc2)c2nnn(Cc3ccccc3)c12
[1]
  GI50: > 100 µM (inactive)
[2]
  GI50: > 100 µM (inactive)
[3]
  GI50: > 100 µM (inactive)
[4]
  GI50: > 100 µM (inactive)
[5]
  GI50: > 100 µM (inactive)
[6]
  GI50: > 100 µM (inactive)
[7]
  GI50: > 100 µM (inactive)
[8]
  GI50: > 100 µM (inactive)
[9]
  GI50: > 100 µM (inactive)
[10]
  GI50: > 100 µM (inactive)
[11]
  GI50: > 100 µM (inactive)
[12]
  GI50: > 100 µM (inactive)
[13]
  GI50: > 100 µM (inactive)
[14]
  GI50: > 100 µM (inactive)
[15]
  GI50: > 100 µM (inactive)

## Nc1ccc(Nc2c3ccccc3nc3ccccc23)cc1
[16]
  GI50: 1.77 µM (inactive)
[1]
  GI50: > 10 µM (inactive)
[2]
  GI50: 2.91 µM (inactive)
[3]
  GI50: 8.51 µM (inactive)
[4]
  GI50: 3.86 µM (inactive)
[5]
  GI50: 5.98 µM (inactive)
[17]
  GI50: 1.38 µM (inactive)
[6]
  GI50: > 10 µM (inactive)
[7]
  GI50: > 10 µM (inactive)
[8]
  GI50: 2.62 µM (inactive)
[9]
  GI50: 1.8 µM (inactive)
[10]
  GI50: 4.4 µM (inactive)
[11]
  GI50: 5.51 µM (inactive)
[12]
  GI50: 5.81 µM (inactive)
[13]
  GI50: 6.95 µM (inactive)
[14]
  GI50: 0.568 µM (active)
[15]
  GI50: 3.15 µM (inactive)

## O=C(O)CC1NC(/C(=C/c2ccccc2O)NC(=O)c2ccccc2)OC1=O (stereo unspecified)
[18]
  GI50: 28.7 µM (inactive)
[16]
  GI50: 25.8 µM (inactive)
[1]
  GI50: > 58.5 µM (inactive)
[2]
  GI50: > 56.1 µM (inactive)
[3]
  GI50: > 33.7 µM (inactive)
[4]
  GI50: > 73.5 µM (inactive)
[5]
  GI50: 61 µM (inactive)
[17]
  GI50: 17 µM (inactive)
[6]
  GI50: 13.9 µM (inactive)
[19]
  GI50: > 75 µM (inactive)
[8]
  GI50: 26.6 µM (inactive)
[9]
  GI50: > 43.9 µM (inactive)
[10]
  GI50: 24.7 µM (inactive)
[11]
  GI50: 9.29 µM (inactive)
[12]
  GI50: 22.1 µM (inactive)
[13]
  GI50: > 78 µM (inactive)
[14]
  GI50: > 100 µM (inactive)
[15]
  GI50: > 100 µM (inactive)

## COc1cc2c(cc1OC)[C@H](C)N1CCc3cc(OC)c(OC)cc3[C@@H]1C2
[18]
  GI50: > 100 µM (inactive)
[16]
  GI50: > 100 µM (inactive)
[1]
  GI50: > 100 µM (inactive)
[2]
  GI50: > 100 µM (inactive)
[3]
  GI50: > 100 µM (inactive)
[4]
  GI50: > 100 µM (inactive)
[5]
  GI50: > 100 µM (inactive)
[17]
  GI50: > 100 µM (inactive)
[6]
  GI50: > 100 µM (inactive)
[19]
  GI50: > 100 µM (inactive)
[8]
  GI50: > 100 µM (inactive)
[9]
  GI50: > 100 µM (inactive)
[10]
  GI50: > 100 µM (inactive)
[11]
  GI50: > 100 µM (inactive)
[12]
  GI50: > 100 µM (inactive)
[14]
  GI50: > 100 µM (inactive)
[15]
  GI50: > 100 µM (inactive)

## O=C1Cc2c([nH]c3ccc([N+](=O)[O-])cc23)-c2ccccc2N1 [ALSTERPAULLONE]
[18]
  GI50: 7.93 µM (inactive)
[16]
  GI50: 0.94 µM (active)
[1]
  GI50: 1.11 µM (active)
[2]
  GI50: 0.332 µM (active)
[3]
  GI50: 0.652 µM (active)
[4]
  GI50: 0.174 µM (active)
[5]
  GI50: 0.757 µM (active)
[17]
  GI50: 0.275 µM (active)
[6]
  GI50: 1.08 µM (active)
[19]
  GI50: 0.822 µM (active)
[8]
  GI50: 0.92 µM (active)
[9]
  GI50: 0.261 µM (active)
[10]
  GI50: 0.471 µM (active)
[11]
  GI50: 0.499 µM (active)
[12]
  GI50: 1.16 µM (inactive)
[13]
  GI50: 0.453 µM (active)
[14]
  GI50: 0.312 µM (active)
[15]
  GI50: 0.211 µM (active)

## CC[C@]1(Cc2ccc(OC)c(OC)c2)[C@@H]2C[C@@H](C3OCCO3)ON2O[C@H](OC2CCCC2(c2ccccc2)c2ccccc2)[C@@H]1OC(C)=O (stereo partly specified)
[16]
  GI50: 37.4 µM (inactive)
[1]
  GI50: 19.6 µM (inactive)
[2]
  GI50: 32.8 µM (inactive)
[3]
  GI50: 21.1 µM (inactive)
[4]
  GI50: 18.5 µM (inactive)
[5]
  GI50: 45.3 µM (inactive)
[17]
  GI50: 20.6 µM (inactive)
[6]
  GI50: 25.6 µM (inactive)
[7]
  GI50: 16.1 µM (inactive)
[8]
  GI50: 21.2 µM (inactive)
[10]
  GI50: 33.2 µM (inactive)
[11]
  GI50: 21.5 µM (inactive)
[12]
  GI50: 44.3 µM (inactive)
[13]
  GI50: 16.2 µM (inactive)
[14]
  GI50: 10.1 µM (inactive)
[15]
  GI50: 24 µM (inactive)
